Experimental data: ChEMBL document CHEMBL5257100, “Discovery and development of benzene sulfonamide derivatives as anti-hepatic fibrosis agents” (Bioorg Med Chem Lett, 2023)
Activity calls are given as the source filed them. No cut-off for these calls is given here.

Key:
[1] = Inhibition of JAK1/STAT1/STAT3 signaling pathway in human LX2 cells assessed as decrease in TGF-beta induced JAK1 phosphorylation level at 1 uM incubated for 24 hrs by Western blot analysis; assay type: cell-based
[2] = tested on: LX-2; assay: Anti-hepatic fibrosis activity in human LX2 cells assessed as inhibition of TGFbeta1-induced COL1A1 protein expression at 1 uM incubated for 24 hrs by western blot analysis; assay type: functional, cell-based
[3] = tested on: AML12; assay: Cytotoxicity against mouse AML12 cells assessed as mortality rate at 1 to 30 uM incubated for 24 hrs by Sulfonyl Rhodamine B assay; assay type: toxicity, cell-based; conditions: aml12, 24 h, dose 1-30 µM
[4] = Inhibition of JAK1/STAT1/STAT3 signaling pathway in human LX2 cells assessed as decrease in TGF-beta induced STAT3 phosphorylation level at 1 uM incubated for 24 hrs by Western blot analysis; assay type: cell-based
[5] = tested on: LX-2; assay: Anti-hepatic fibrosis activity in human LX2 cells assessed as inhibition of TGFbeta1-induced TIMP-1 protein expression at 1 uM incubated for 24 hrs by western blot analysis; assay type: functional, cell-based
[6] = Inhibition of JAK1/STAT1/STAT3 signaling pathway in human LX2 cells assessed as decrease in TGF-beta induced STAT1 phosphorylation level at 1 uM incubated for 24 hrs by Western blot analysis; assay type: cell-based
[7] = tested on: LX-2; assay: Anti-hepatic fibrosis activity in human LX2 cells assessed as inhibition of TGFbeta1-induced FN protein expression at 3 uM incubated for 24 hrs by western blot analysis; assay type: functional, cell-based
[8] = Cytotoxicity against human LX2 cells assessed as mortality rate at 1 to 30 uM incubated for 24 hrs by Sulfonyl Rhodamine B assay; assay type: toxicity, cell-based; conditions: lx-2, 24 h, dose 1-30 µM
[9] = tested on: LX-2; assay: Anti-hepatic fibrosis activity in human LX2 cells assessed as inhibition of TGFbeta1-induced FN protein expression at 1 uM incubated for 24 hrs by western blot analysis; assay type: functional, cell-based
[10] = tested on: LX-2; assay: Anti-hepatic fibrosis activity in human LX2 cells assessed as inhibition of TGFbeta1-induced alpha-SMA protein expression at 3 uM incubated for 24 hrs by western blot analysis; assay type: functional, cell-based
[11] = tested on: LX-2; assay: Anti-hepatic fibrosis activity in human LX2 cells assessed as inhibition of TGFbeta1-induced alpha-SMA protein expression at 1 uM incubated for 24 hrs by western blot analysis; assay type: functional, cell-based
[12] = tested on: LX-2; assay: Anti-hepatic fibrosis activity in human LX2 cells assessed as inhibition of TGF-beta1 induced intrinsic TGF-beta1 mRNA expression at 3 micromol/L incubated for 24 hrs by qPCR analysis; assay type: functional, cell-based; conditions: dose 3.0 µmol/L
[13] = tested on: LX-2; assay: Anti-hepatic fibrosis activity in human LX2 cells assessed as inhibition of TGFbeta1-induced TIMP-1 protein expression at 3 uM incubated for 24 hrs by western blot analysis; assay type: functional, cell-based
[14] = tested on: LX-2; assay: Anti-hepatic fibrosis activity in human LX2 cells assessed as inhibition of TGF-beta1 induced MMP-2 mRNA expression at 3 micromol/L incubated for 24 hrs by qPCR analysis; assay type: functional, cell-based; conditions: dose 3.0 µmol/L
[15] = tested on: LX-2; assay: Anti-hepatic fibrosis activity in human LX2 cells assessed as inhibition of TGF-beta1 induced COL1A1 mRNA expression at 3 micromol/L incubated for 24 hrs by qPCR analysis; assay type: functional, cell-based; conditions: dose 3.0 µmol/L
[16] = Anti-hepatic fibrosis activity in human LX2 cells assessed as inhibition of COL1A1 promoter activity at 25 micromol/L by luciferase reporter assay relative to control; assay type: functional; conditions: LX-2, dose 25 µmol/L
[17] = tested on: LX-2; assay: Anti-hepatic fibrosis activity in human LX2 cells assessed as inhibition of TGFbeta1-induced COL1A1 protein expression at 3 uM incubated for 24 hrs by western blot analysis; assay type: functional, cell-based

## O=C(Nc1ccccc1NS(=O)(=O)c1cccc([N+](=O)[O-])c1)c1cc(Cl)c(Cl)c(Cl)c1
[1]
  inhibition: Active
[2]
  inhibition: Active
[3]
  Activity: Non-Toxic
[4]
  inhibition: Active
[5]
  inhibition: Active
[6]
  inhibition: Active
[7]
  inhibition: Active
[8]
  Activity: Toxic
[9]
  inhibition: Active
[10]
  inhibition: Active
[11]
  inhibition: Active
[12]
  inhibition: Active
[13]
  inhibition: Active
[14]
  inhibition: Active
[15]
  inhibition: Active
[16]
  inhibition at 25 µM: 61.7%
[17]
  inhibition: Active

## O=C(Nc1ccccc1NS(=O)(=O)c1ccc([N+](=O)[O-])cc1)c1cc(Cl)c(Cl)c(Cl)c1
[1]
  inhibition: Active
[2]
  inhibition: Active
[3]
  Activity: Non-Toxic
[4]
  inhibition: Active
[5]
  inhibition: Active
[6]
  inhibition: Active
[7]
  inhibition: Active
[8]
  Activity: Non-Toxic
[9]
  inhibition: Active
[10]
  inhibition: Active
[11]
  inhibition: Active
[12]
  inhibition: Active
[13]
  inhibition: Active
[14]
  inhibition: Active
[15]
  inhibition: Active
[16]
  inhibition at 25 µM: 54.8%
[17]
  inhibition: Active
